pKi: −log10 of the molar value.
These molecules were tested against truncated PI3Kα (p110α/iSH2 p85α), PI3KA_Act (Homo sapiens (Human), UniProt P42336) (assay: PI3Kα biochemical kinase assay, fluorescence polarization format (PI3KA_Act)). Settings: 0.5 nM p110α/iSH2 p85, 1 mM ATP, 30 μM PIP2, 15-min preincubation; Morrison equation fit; read-out: PI3KA_Act Ki.
Protocol: Enzyme Production for Biochemical Assay: p110α-iSH2 p85α Complex (Full Length p110α and p85α iSH2)(“PI3KA Act”)
Gene encoding p110α subunit was subcloned into polyhedrine promoter while gene encoding p85α niSH2 domains was subcloned into p10 promoter. […] Recombinant baculovirus was generated using Bac-to-Bac protocol (Life Technologies, Carlsbad, Calif.). Large scale expression was conducted in Sf21 (Life Technologies, Carlsbad, Calif.) cells at a multiplicity of infection (“MOI”)=1 for 48 hours. Cells were lyzed in 50 mM Tris pH 8.0, 250 mM NaCl, 5% glycerol, 0.25 mM TCEP, and 20 mM imidazole. The p110α-niSH2 p85α complex was purified from clarified supernatant using Immobilized Metalo Affinity Chromatography (“IMAC”). The protein was eluted from the column using 50 mM Tris pH 8.0, 200 mM NaCl, 0.25 mM TCEP, and 200 mM imidazole. Following elution p110α-niSH2 p85α complex was dialyzed against 4 liters of 50 mM Tris pH 8.0, 200 mM NaCl, 0.25 mM TCEP, and 40 mM imidazole in the presence of PreScission Protease (1:70 molar ratio of Protease to Protein) and TEV protease (1:40 molar ratio protease to protein) for 16 hours at 4° C. The protein was further purified using reverse IMAC to remove cleaved histidine tag and contaminants captured during initial IMAC purification. The mixture of p110α-iSH2 p85α complex and cleaved nSH2 was recovered in reverse IMAC 40 mM imidazole flow through and 60 mM imidazole wash fractions. Those fractions were pulled together and loaded on Superdex 200 26/60 SEC column equilibrated in 25 mM Tris, pH 8.0, 100 mM NaCl, 2% glycerol, and 2 mM TCEP.
The enzymatic reactions were conducted in 50 μL volumes in 96-well plates. […] The reactions were incubated for 30 min at room temperature, stopped with EDTA pH 8 (10 mM final concentration). […] The plate was shaken for 30 minutes and fluorescence polarization values were measured on an LJL Analyst HT plate reader (Molecular Devices, Sunnyvale, Calif.).

truncated PI3Kα (p110α/iSH2 p85α), PI3KA_Act, sequence (P42336 whole entry, the tested form may be a part): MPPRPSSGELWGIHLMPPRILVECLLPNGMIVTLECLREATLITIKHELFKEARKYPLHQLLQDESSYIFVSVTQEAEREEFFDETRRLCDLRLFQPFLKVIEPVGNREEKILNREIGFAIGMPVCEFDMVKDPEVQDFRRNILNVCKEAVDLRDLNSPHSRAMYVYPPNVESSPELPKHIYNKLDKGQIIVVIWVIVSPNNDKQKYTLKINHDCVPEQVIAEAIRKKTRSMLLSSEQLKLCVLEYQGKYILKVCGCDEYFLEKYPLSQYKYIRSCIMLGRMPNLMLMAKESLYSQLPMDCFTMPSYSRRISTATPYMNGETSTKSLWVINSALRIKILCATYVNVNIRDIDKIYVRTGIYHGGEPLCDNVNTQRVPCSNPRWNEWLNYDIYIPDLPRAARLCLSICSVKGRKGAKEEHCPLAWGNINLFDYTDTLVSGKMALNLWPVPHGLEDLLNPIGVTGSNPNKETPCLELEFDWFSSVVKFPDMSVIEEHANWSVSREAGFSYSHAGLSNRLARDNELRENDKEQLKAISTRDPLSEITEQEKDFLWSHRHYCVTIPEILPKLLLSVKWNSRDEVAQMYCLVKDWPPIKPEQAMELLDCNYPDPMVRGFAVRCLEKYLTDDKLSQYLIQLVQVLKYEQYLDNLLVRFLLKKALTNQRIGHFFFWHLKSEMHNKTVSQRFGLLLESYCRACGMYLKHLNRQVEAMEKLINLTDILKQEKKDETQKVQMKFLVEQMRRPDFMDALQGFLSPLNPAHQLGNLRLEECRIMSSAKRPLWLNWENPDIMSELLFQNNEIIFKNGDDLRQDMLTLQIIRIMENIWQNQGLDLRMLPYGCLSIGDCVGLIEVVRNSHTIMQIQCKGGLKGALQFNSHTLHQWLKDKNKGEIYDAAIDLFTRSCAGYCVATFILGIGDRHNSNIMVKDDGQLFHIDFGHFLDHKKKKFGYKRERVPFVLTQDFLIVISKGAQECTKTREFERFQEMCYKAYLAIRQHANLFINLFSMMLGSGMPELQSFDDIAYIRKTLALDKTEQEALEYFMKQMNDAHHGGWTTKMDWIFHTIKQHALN

pKi	SMILES
9.98	CC(C)(C)OC(=O)N1CC[C@](CO)(Nc2nc(-c3cnc(N)nc3)nc(N3CCOCC3)n2)C1 [Example 39, tert-butyl (3S)-3-{[4-(2-aminopyrimidin-5-yl)-6-(morpholin-4-yl)-1,3,5-triazin-2-yl]amino}-3-(hydroxymethyl)pyrrolidine-1-carboxylate]
8.71	Nc1ncc(-c2cc(NC3(CO)CNC3)nc(N3CCOCC3)n2)cn1 [Example 43, (3-{[2′-amino-2-(morpholin-4-yl)-4,5′-bipyrimidin-6-yl]amino}azetidin-3-yl)methanol]
10.49	CC(C)OC(=O)N1CC[C@](CO)(Nc2cc(-c3cnc(N)nc3)nc(N3CCOCC3)n2)C1 [Example 44, propan-2-yl (3S)-3-{[2′-amino-2-(morpholin-4-yl)-4,5′-bipyrimidin-6-yl]amino}-3-(hydroxymethyl)pyrrolidine-1-carboxylate]
> 10.74	Nc1ncc(-c2cc(N[C@@]3(CO)CCN(C(=O)[C@@H]4CC4(F)F)C3)nc(N3CCOCC3)n2)cn1 [Example 46, [(3S)-3-{[2′-amino-2-(morpholin-4-yl)-4,5′-bipyrimidin-6-yl]amino}-3-(hydroxymethyl)pyrrolidin-1-yl][(1S)-2,2-difluorocyclopropyl]methanone]
9.21	CC(C)[C@H](N)C(=O)N1CC[C@](CO)(Nc2cc(-c3cnc(N)nc3)nc(N3CCOCC3)n2)C1 [Example 51, (2S)-2-amino-1-[(3S)-3-{[2′-amino-2-(morpholin-4-yl)-4,5′-bipyrimidin-6-yl]amino}-3-(hydroxymethyl)pyrrolidin-1-yl]-3-methylbutan-1-one]
10.08	CC(C)S(=O)(=O)N1CC[C@](CO)(Nc2cc(-c3cnc(N)nc3)nc(N3CCOCC3)n2)C1 [Example 52, [(3S)-3-{[2′-amino-2-(morpholin-4-yl)-4,5′-bipyrimidin-6-yl]amino}-1-(propan-2-ylsulfonyl)pyrrolidin-3-yl]methanol]
9.70	COC(=O)N1CC[C@](CO)(Nc2cc(-c3cnc(N)nc3C(F)(F)F)nc(N3CCOCC3)n2)C1 [Example 58, methyl (3S)-3-{[2′-amino-2-(morpholin-4-yl)-4′-(trifluoromethyl)-4,5′-bipyrimidin-6-yl]amino}-3-(hydroxymethyl)pyrrolidine-1-carboxylate]
9.74	COC(=O)N1CC[C@](CO)(Nc2cc(-c3cnc(N)nc3C)nc(N3CCOCC3)n2)C1 [Example 59, methyl (3S)-3-{[2′-amino-4′-methyl-2-(morpholin-4-yl)-4,5′-bipyrimidin-6-yl]amino}-3-(hydroxymethyl)pyrrolidine-1-carboxylate]
7.90	Nc1ncc(-c2cc(N[C@@]3(CO)CCN(C(=O)[C@@H](O)c4ccccc4)C3)nc(N3CCOCC3)n2)cn1 [Example 60, (2S)-1-[(3S)-3-{[2′-amino-2-(morpholin-4-yl)-4,5′-bipyrimidin-6-yl]amino}-3-(hydroxymethyl)pyrrolidin-1-yl]-2-hydroxy-2-phenylethanone]
10.21	Nc1ncc(-c2cc(N[C@@]3(CO)CCN(C(=O)c4ccccn4)C3)nc(N3CCOCC3)n2)cn1 [Example 63, [(3S)-3-{[2′-amino-2-(morpholin-4-yl)-4,5′-bipyrimidin-6-yl]amino}-3-(hydroxymethyl)pyrrolidin-1-yl](pyridin-2-yl)methanone]
> 10.74	CCOC(=O)N1CC[C@](CO)(Nc2cc(-c3cnc(N)nc3)nc(N3CCOC[C@@H]3C)n2)C1 [Example 64, ethyl (3S)-3-({2′-amino-2-[(3S)-3-methylmorpholin-4-yl]-4,5′-bipyrimidin-6-yl}amino)-3-(hydroxymethyl)pyrrolidine-1-carboxylate]

Second part, the molecule before the results:

SMILES	pKi
CC(C)(C)OC(=O)N1CC[C@](CO)(Nc2nc(N3CCOCC3)nc(-c3cnc(N)nc3)c2F)C1 [Example 38, tert-butyl (3S)-3-{[2′-amino-5-fluoro-2-(morpholin-4-yl)-4,5′-bipyrimidin-6-yl]amino}-3-(hydroxymethyl)pyrrolidine-1-carboxylate]	> 10.74
CC(C)(C)OC(=O)N1CC[C@](C)(Nc2cc(-c3cnc(N)nc3)nc(N3CCOCC3)n2)C1 [Example 40, tert-butyl (3S)-3-{[2′-amino-2-(morpholin-4-yl)-4,5′-bipyrimidin-6-yl]amino}-3-methylpyrrolidine-1-carboxylate]	10.02
CC(C)(C)OC(=O)N1CC(CO)(Nc2cc(-c3cnc(N)nc3)nc(N3CCOCC3)n2)C1 [Example 41, tert-butyl 3-{[2′-amino-2-(morpholin-4-yl)-4,5′-bipyrimidin-6-yl]amino}-3-(hydroxymethyl)azetidine-1-carboxylate]	9.89
CC(=O)N1CC(CO)(Nc2cc(-c3cnc(N)nc3)nc(N3CCOCC3)n2)C1 [Example 42, 1-[3-{[2′-amino-2-(morpholin-4-yl)-4,5′-bipyrimidin-6-yl]amino}-3-(hydroxymethyl)azetidin-1-yl]ethanone]	9.19
CC1(OC(=O)N2CC[C@](CO)(Nc3cc(-c4cnc(N)nc4)nc(N4CCOCC4)n3)C2)CC1 [Example 47, 1-methylcyclopropyl (3S)-3-{[2′-amino-2-(morpholin-4-yl)-4,5′-bipyrimidin-6-yl]amino}-3-(hydroxymethyl)pyrrolidine-1-carboxylate]	10.60
CC(C)(C)NC(=O)N1CC[C@](CO)(Nc2cc(-c3cnc(N)nc3)nc(N3CCOCC3)n2)C1 [Example 48, (3S)-3-{[2′-amino-2-(morpholin-4-yl)-4,5′-bipyrimidin-6-yl]amino}-N-tert-butyl-3-(hydroxymethyl)pyrrolidine-1-carboxamide]	9.15
C[C@H]1COCCN1c1nc(NC2(CO)CN(C(=O)OC(C)(C)C)C2)cc(-c2cnc(N)nc2)n1 [Example 49, tert-butyl 3-({2′-amino-2-[(3S)-3-methylmorpholin-4-yl]-4,5′-bipyrimidin-6-yl}amino)-3-(hydroxymethyl)azetidine-1-carboxylate]	10.08
CC(C)[C@@H](N)C(=O)N1CC[C@](CO)(Nc2cc(-c3cnc(N)nc3)nc(N3CCOCC3)n2)C1 [Example 50, (2R)-2-amino-1-[(3S)-3-{[2′-amino-2-(morpholin-4-yl)-4,5′-bipyrimidin-6-yl]amino}-3-(hydroxymethyl)pyrrolidin-1-yl]-3-methylbutan-1-one]	9.86
C[C@H]1COCCN1c1nc(NC2(CO)CNC2)cc(-c2cnc(N)nc2)n1 [Example 54, [3-({2′-amino-2-[(3S)-3-methylmorpholin-4-yl]-4,5′-bipyrimidin-6-yl}amino)azetidin-3-yl]methanol]	8.57
Nc1ncc(-c2cc(N[C@@]3(CO)CCN(C(=O)[C@H](O)c4ccccc4)C3)nc(N3CCOCC3)n2)cn1 [Example 55, (2R)-1-[(3S)-3-{[2′-amino-2-(morpholin-4-yl)-4,5′-bipyrimidin-6-yl]amino}-3-(hydroxymethyl)pyrrolidin-1-yl]-2-hydroxy-2-phenylethanone]	9.43
Nc1ncc(-c2cc(N[C@@]3(CO)CCN(C(=O)C4(F)CC4)C3)nc(N3CCOCC3)n2)cn1 [Example 56, [(3S)-3-{[2′-amino-2-(morpholin-4-yl)-4,5′-bipyrimidin-6-yl]amino}-3-(hydroxymethyl)pyrrolidin-1-yl](1-fluorocyclopropyl)methanone]	> 10.74
CC(C)CC(=O)N1CC[C@](CO)(Nc2cc(-c3cnc(N)nc3)nc(N3CCOCC3)n2)C1 [Example 57, 1-[(3S)-3-{[2′-amino-2-(morpholin-4-yl)-4,5′-bipyrimidin-6-yl]amino}-3-(hydroxymethyl)pyrrolidin-1-yl]-3-methylbutan-1-one]	9.94
CC(C)(C)CC(=O)N1CC[C@](CO)(Nc2cc(-c3cnc(N)nc3)nc(N3CCOCC3)n2)C1 [Example 61, 1-[(3S)-3-{[2′-amino-2-(morpholin-4-yl)-4,5′-bipyrimidin-6-yl]amino}-3-(hydroxymethyl)pyrrolidin-1-yl]-3,3-dimethylbutan-1-one]	10.27
COC(=O)N1CC[C@](CO)(Nc2cc(-c3cnc(N)nc3)nc(N3CCOC[C@@H]3C)n2)C1 [Example 65, methyl (3S)-3-({2′-amino-2-[(3S)-3-methylmorpholin-4-yl]-4,5′-bipyrimidin-6-yl}amino)-3-(hydroxymethyl)pyrrolidine-1-carboxylate]	> 10.74
Nc1ncc(-c2cc(N[C@@]3(CO)CCN(CC(F)F)C3)nc(N3CCOCC3)n2)cn1 [Example 67, [(3S)-3-{[2′-amino-2-(morpholin-4-yl)-4,5′-bipyrimidin-6-yl]amino}-1-(2,2-difluoroethyl)pyrrolidin-3-yl]methanol]	8.82

— patent US9758538B2, “Pyrimidine derivatives” (PFIZER INC., priority 2015, dated 2017)
